Source: US7148245B2, “Biphenyl derivatives substituted with an aromatic or heteroaromatic radical, and pharmaceutical and cosmetic compositions containing them” (Galderma Research & Development, priority 1997, dated 2006)

Structure (SMILES) | melting point [°C]
COCOc1ccc(-c2ccc3c(c2)C(C)(C)CCC3(C)C)cc1-c1ccc(C(=O)O)cc1 | 183 to 185
COCOc1c(-c2ccc(C(=O)O)cc2)cccc1-c1ccc2c(c1)C(C)(C)CCC2(C)C | 176
COc1c(-c2ccc(C(=O)O)cc2)cccc1-c1ccc2c(c1)C(C)(C)CCC2(C)C | 205
COCOCc1cc(-c2ccc(C(=O)O)cc2)cc(-c2ccc3c(c2)C(C)(C)CCC3(C)C)c1 | 165
CC1(C)CCC(C)(C)c2cc(-c3cc(CO)cc(-c4ccc(C(=O)O)cc4)c3)ccc21 | 213
CC1(C)CCSc2cc(-c3cc(-c4ccc(C(=O)O)cc4)ccc3-c3ccccc3)ccc21 | 261
CC1(C)CCC(C)(C)c2cc(-c3cc(-c4ccc(C(=O)O)cc4)ccc3-c3ccccc3)c(O)cc21 | 273
CC1(C)CCC(C)(C)c2cc(-c3cc(-c4ccc(C(=O)O)cc4)ccc3C(=O)O)ccc21 | 343
CC1(C)CCC(C)(C)c2cc(-c3cc(-c4ccc(C(=O)O)cc4)ccc3OCC(O)CO)ccc21 (racemic) [Example 10, 4′-(2,3-Dihydroxypropoxy)-3′-(5,5,8,8-tetramethyl-5,6,7,8-tetrahydro-2-naphthyl)biphenyl-4-carboxylic acid] | 258
CC1(C)CCC(C)(C)c2cc(-c3cc(-c4ccc(C(=O)O)cc4)ccc3OCCCCCCO)ccc21 [Example 3, 4-[4-(6-Hydroxyhexyloxy)-3-(5,6,7,8-tetrahydro-5,5,8,8-tetramethyl-2-naphthyl)phenyl]benzoic acid] | 200 to 201
CC1(C)CCC(C)(C)c2cc(-c3cc(-c4ccc(C(=O)O)cc4)ccc3OCCCCCCCO)ccc21 [Example 4, 4-[4-(7-Hydroxyheptyloxy)-3-(5,6,7,8-tetrahydro-5,5,8,8-tetramethyl-2-naphthyl)phenyl]benzoic acid] | 168 to 172
CC1(C)CCC(C)(C)c2cc(-c3cc(-c4ccc(C(=O)O)cc4)ccc3OCCCCCCCCO)ccc21 [Example 5, 4-[4-(8-Hydroxyoctyloxy)-3-(5,6,7,8-tetrahydro-5,5,8,8-tetramethyl-2-naphthyl)phenyl]benzoic acid] | 155 to 160
CC1(C)CCC(C)(C)c2cc(-c3cc(-c4ccc(C(=O)O)cc4)ccc3OCCCCCCCCCO)ccc21 [Example 6, 4-[4-(9-Hydroxynonyloxy)-3-(5,6,7,8-tetrahydro-5,5,8,8-tetramethyl-2-naphthyl)phenyl]benzoic acid] | 147 to 150
CC1(C)CCC(C)(C)c2cc(-c3cc(-c4ccc(C(=O)O)cc4)ccc3OCc3ccccc3)ccc21 [Example 9, 4-[4-Benzyloxy-3-(5,6,7,8-tetrahydro-5,5,8,8-tetramethyl-2-naphthyl)phenyl]benzoic acid] | 241 to 244
CC1(C)CCC(C)(C)c2cc(-c3cc(-c4ccc(C(=O)O)cc4)ccc3OCCN3CCOCC3)ccc21 [Example 12, 4′-(2-Morpholin-4-ylethoxy)-3′-(5,5,8,8-tetramethyl-5,6,7,8-tetrahydro-2-naphthyl)biphenyl-4-carboxylic acid] | 270 to 272
CC1(C)CCC(C)(C)c2cc(-c3cc(-c4ccc(C(=O)O)cc4)ccc3-c3ccccc3)ccc21 [Example 14, 2′-(5,5,8,8-Tetramethyl-5,6,7,8-tetrahydro-2-naphthyl)-[1,1′;4′,1″]terphenyl-4″-carboxylic acid] | 287 to 288

Structure (SMILES) | melting point [°C]
COCOc1cccc(-c2ccc(-c3ccc(C(=O)O)cc3)cc2-c2ccc3c(c2)C(C)(C)CCC3(C)C)c1 [Example 18, 3-Methoxymethoxy-2′-(5,5,8,8-tetramethyl-5,6,7,8-tetrahydro-2-naphthyl)-[1,1′;4′,1″]terphenyl-4″-carboxylic acid] | 212
COc1cccc(-c2ccc(-c3ccc(C(=O)O)cc3)cc2-c2ccc3c(c2)C(C)(C)CCC3(C)C)c1 [Example 20, 3-Methoxy-2′-(5,5,8,8-tetramethyl-5,6,7,8-tetrahydro-2-naphthyl)-[1,1′;4′,1″]terphenyl-4″-carboxylic acid] | 258 to 259
COCOc1ccccc1-c1ccc(-c2ccc(C(=O)O)cc2)cc1-c1ccc2c(c1)C(C)(C)CCC2(C)C [Example 21, 2-Methoxymethoxy-2′-(5,5,8,8-tetramethyl-5,6,7,8-tetrahydro-2-naphthyl)-[1,1′;4′,1″]terphenyl-4″-carboxylic acid] | 218 to 221
CC1(C)CCC(C)(C)c2cc(-c3cc(-c4ccc(C(=O)O)cc4)ccc3-c3ccccc3O)ccc21 [Example 22, 2-hydroxy-2′-(5,5,8,8-tetramethyl-5,6,7,8-tetrahydro-2-naphthyl)-[1,1′;4′,1″]terphenyl-4″-carboxylic acid] | 265 to 269
COc1ccccc1-c1ccc(-c2ccc(C(=O)O)cc2)cc1-c1ccc2c(c1)C(C)(C)CCC2(C)C [Example 23, 2-Methoxy-2′-(5,5,8,8-tetramethyl-5,6,7,8-tetrahydro-2-naphthyl)-[1,1′;4′,1″]terphenyl-4″-carboxylic acid] | 239 to 243
CC1(C)CCC(C)(C)c2cc(-c3ccc(-c4ccccc4)c(-c4ccc(C(=O)O)cc4)c3)ccc21 [Example 28, 4′-(5,5,8,8-Tetramethyl-5,6,7,8-tetrahydro-2-naphthyl)-[1,1′;2′,1″]terphenyl-4″-carboxylic acid] | 258 to 262
Cc1cc2c(cc1-c1cc(-c3ccc(C(=O)O)cc3)ccc1-c1ccccc1)C(C)(C)CCC2(C)C [Example 36, 2′-(3,5,5,8,8-Pentamethyl-5,6,7,8-tetrahydro-2-naphthyl)-[1,1′;4′,1″]terphenyl-4″-carboxylic acid] | 217
CCCOc1cc2c(cc1-c1cc(-c3ccc(C(=O)O)cc3)ccc1-c1ccccc1)C(C)(C)CCC2(C)C [Example 40, 2′-(3-Propyloxy-5,5,8,8-tetramethyl-5,6,7,8-tetrahydro-2-naphthyl)-[1,1′;4′,1″]terphenyl-4″-carboxylic acid] | 234
CC1(C)CCC(C)(C)c2cc(-c3cc(-c4ccc(C(=O)O)cc4O)ccc3-c3ccccc3)ccc21 [Example 42, 2″-Hydroxy-2′-(5,5,8,8-tetramethyl-5,6,7,8-tetrahydro-2-naphthyl)-[1,1′;4′,1″]terphenyl-4″-carboxylic acid] | 282 to 284
COCOc1cc(C(=O)O)ccc1-c1ccc(-c2ccccc2)c(-c2ccc3c(c2)C(C)(C)CCC3(C)C)c1 [Example 43, 2″-Methoxymethoxy-2′-(5,5,8,8-tetramethyl-5,6,7,8-tetrahydro-2-naphthyl)-[1,1′;4′,1″]terphenyl-4″-carboxylic acid] | 204 to 206
CC1(C)CCC(C)(C)c2cc(-c3cc(-c4ccc(C(=O)O)c(O)c4)ccc3-c3ccccc3)ccc21 [Example 46, 3″-Hydroxy-2′-(5,5,8,8-tetramethyl-5,6,7,8-tetrahydro-2-naphthyl)-[1,1′;4′,1″]terphenyl-4″-carboxylic acid] | 266 to 268
CC1(C)CCC(C)(C)c2cc(-c3cc(-c4ccc(C(=O)O)nc4)ccc3-c3ccccc3)ccc21 [Example 48, 5-[2-(5,5,8,8-Tetramethyl-5,6,7,8-tetrahydro-2-naphthyl)biphenyl-4-yl]-2-pyridinecarboxylic acid] | 222 to 224
CC1(C)CCC(C)(C)c2cc(C3C=C(c4ccccc4)C=CC3(OCC(=O)O)C(=O)O)ccc21 (stereo not shown) [Example 54, 4′-Carboxymethoxy-3′-(5,5,8,8-tetramethyl-5,6,7,8-tetrahydro-2-naphthyl)biphenyl-4′-carboxylic acid] | 279 to 281
CCOC(=O)CCCCCOc1ccc(-c2ccc(C(=O)O)cc2)cc1-c1ccc2c(c1)C(C)(C)CCC2(C)C [Example 55, 4′-(5-Ethoxycarbonylpentyloxy)-3′-(5,5,8,8-tetramethyl-5,6,7,8-tetrahydro-2-naphthyl)biphenyl-4-carboxylic acid] | 177
CC1(C)CCC(C)(C)c2cc(-c3cc(-c4ccc(C(=O)O)cc4)ccc3OCCCCCC(=O)O)ccc21 [Example 56, 4′-(5-Carboxypentyloxy)-3′-(5,5,8,8-tetramethyl-5,6,7,8-tetrahydro-2-naphthyl)biphenyl-4-carboxylic acid] | 245
